# Earlier results as cited in patent publication US10568327B1, “Method of controlling phytopathogenic diseases on turfgrass” (Syngenta Crop Protection LLC, priority 2012, dated 2020).
# Like-named read-outs stand apart in the source and are kept apart here.
# System: creeping bentgrass greens
smiles,measurement,setting,value
"CSC(=O)c1cccc2nnsc12 [acibenzolar-S-methyl, S-methyl benzo[1,2,3]thiadiazole-7-carbothioate]",Turf quality,"6.1 grams/1,000 square meters, with reduced chlorothalonil rates, creeping bentgrass greens, Fry et al. 2006",below standard
same,Turf quality,"with chlorothalonil at lower than recommended rate, creeping bentgrass putting greens, Zhang et al. 2005",unacceptable
